This note sets out measurements from patent publication US4959368A, “Therapeutic agent for neurological diseases” (Mitsui Petrochemical Industries Ltd., priority 1986, dated 1990).

SMILES strings stand for the structures.

The test system of the test is mouse neuroblastoma cell line neuro-2a. As to the kind of experiment: Activity on neuro-2a, cells with outgrown neurites. It is filed as cell-based. How it is done: In order to examine the effects of the test compounds, the following method was also employed.
Mouse neuro 2a cells in the logarithmic growth period in the Dulbecco's modified Eagle's medium (DMEM) containing 10% FCS was seeded in a 48-well plate so that the number of cells was 1,000 cells/well, and cultured for one day in 0.25 ml of the culture fluid in each well. The culture medium was then replaced by a medium containing each of the test compounds and FCS, and the cells were further cultured for 24 hours. Then, a 4% aqueous glutaraldehyde solution in the same amount as the medium (0.25 ml) was added, and the culture fluid was left to stand at room temperature for 2 hours to fix the cells. After washing with water, a 0.05% aqueous solution of methylene blue was added to stain the cells. Under a microscope, the number of cells containing outgrown neurites (cells having at least one neutrite with a length at least two times as large as the long diameter of the cell) was counted visually, and the proportion of these cells in the entire cells was calculated. The well was observed over 5 or more visual fields (at least 2% of the entire surface area of the well) continuous to the left and right from a mark put at the center of the well, and more than 200 cells was counted. One drug compound was used in 6 different concentrations at most, and three runs were conducted for each concentration.

[1] abbreviates: Table 3 Run No. 9, 0.1 mM, control 2.0 ± 1.0.
Setting [2] is: Table 3 Run No. 9, 0.3 mM, control 2.0 ± 1.0.
Setting [3] is: Table 3 Run No. 10, 0.1 mM, control 1.7 ± 0.7.
[4] abbreviates: Table 3 Run No. 4, 0.3 mM, control 3.1 ± 0.2.
The mark [5] stands for this setting: Table 3 Run No. 4, 0.5 mM, control 3.1 ± 0.2.
The mark [6] stands for this setting: Table 3 Run No. 4, 1 mM, control 3.1 ± 0.2.
The mark [7] stands for this setting: Table 3 Run No. 8, 0.3 mM, control 3.7 ± 0.4.
[8] abbreviates: Table 3 Run No. 8, 0.5 mM, control 3.7 ± 0.4.
Where [9] appears, read: Table 3 Run No. 8, 1 mM, control 3.7 ± 0.4.
The mark [10] stands for this setting: Table 3 Run No. 2, 0.3 mM, control 1.9 ± 0.9.
Where [11] appears, read: Table 3 Run No. 2, 1 mM, control 1.9 ± 0.9.
The mark [12] stands for this setting: Table 3 Run No. 4, 0.1 mM, control 3.1 ± 0.2.
Where [13] appears, read: Table 3 second Run No. 5, 1 mM, control 4.5 ± 0.3.

In the case of `CCOC(=O)CC1C(=O)N(C)c2nc(N3CCNCC3)ncc21` (stereo not shown) [Compound 674], the “Cells having neurites with a length at least twice the long diameter of cell/total number of cells” value is, setting by setting: (Table 3 Run No. 11, 0.03 mM, control 2.5 ± 0.6) 4.2 ± 0.8%; (Table 3 Run No. 11, 0.1 mM, control 2.5 ± 0.6) 6.7 ± 1.3%; (Table 3 Run No. 11, 0.3 mM, control 2.5 ± 0.6) 4.5 ± 1.9%.
As for `CN1C(=O)Cc2cnc(N3CCN(Cc4ccc5c(c4)OCO5)CC3)nc21` [Compound 436, 5,6-Dihydro-7-methyl-2[4-(3,4-methylenedioxyphenylmethyl)piperazino]-6-oxo(7H)pyrrolo[2,3-d]pyrimidine], the “Cells having neurites with a length at least twice the long diameter of cell/total number of cells” value reads like this: (Table 3 Run No. 9, 0.03 mM, control 2.0 ± 1.0) 14.3 ± 2.9%; under setting [1], 15.6 ± 7.3%; under setting [2], 12.5 ± 6.2%.
With `CCCC(C)N1Cc2nc(N3CCNCC3)ncc2C1=O` (stereo not shown) [Compound 646], the “Cells having neurites with a length at least twice the long diameter of cell/total number of cells” value under setting [3] came to 7.3 ± 0.2%.
Turning to `CC(C)(C)N1Cc2nc(N3CCNCC3)ncc2C1=O` [Compound 642], the “Cells having neurites with a length at least twice the long diameter of cell/total number of cells” value was found to be 9.5 ± 1.2% under setting [1] and 14.4 ± 4.0% under setting [2].
Regarding `CN1C(=O)Cc2cnc(N3CCN(Cc4ccccc4)CC3)nc21` [Compound 434, 2-(4-Benzylpiperazino)-5,6-dihydro-7-methyl-6-oxo(7H)pyrrolo[2,3-d]pyrimidine 2-naphthalenesulfonate], under setting [1], the “Cells having neurites with a length at least twice the long diameter of cell/total number of cells” value is 6.0 ± 1.2%.
For the molecule `CN1C(=O)Cc2cnc(N3CCNCC3)nc21` [Compound 412], the “Cells having neurites with a length at least twice the long diameter of cell/total number of cells” value is, setting by setting: (Table 3 Run No. 3, 0.3 mM, control 3.9 ± 0.3) 16.6 ± 2.6%; (Table 3 Run No. 3, 1 mM, control 3.9 ± 0.3) 44.2 ± 1.4%; under setting [4], 15.8 ± 2.3%; under setting [5], 27.9 ± 2.9%; under setting [6], 47.8 ± 0.4%; under setting [7], 18.4 ± 0.5%. Also, the “Cells having neurites with a length at least twice the long diameter of cell/total number of cells” value under setting [8] is 49.5 ± 3.5% and the “Cells having neurites with a length at least twice the long diameter of cell/total number of cells” value under setting [9] is recorded as 32.6 ± 1.3%.
On to `CN1C(=O)Cc2cnc(N3CCNCC3)nc21` [Compound 410], for which the “Cells having neurites with a length at least twice the long diameter of cell/total number of cells” value runs as follows: under setting [7], 22.4 ± 2.9%; under setting [8], 36.7 ± 6.1%; under setting [9], 15.5 ± 0.3%.
Turning to `CCCN(CCC)C(=O)c1cnc(N2CCNCC2)nc1NCC` [Compound 104], the “Cells having neurites with a length at least twice the long diameter of cell/total number of cells” value reads like this: under setting [10], 10.6 ± 4.6%; under setting [11], 5.3 ± 1.8%.
In the case of `CC1Cc2nc(N3CCNCC3)ncc2C(=O)O1.Cl` (stereo not shown) [Compound 918, 7,8-Dihydro-7-methyl-5-oxo-2-piperazino(5H)pyrano[4,3-d]pyrimidine hydrochloride], the “Cells having neurites with a length at least twice the long diameter of cell/total number of cells” value under setting [12] was found to be 7.4 ± 2.5% and the “Cells having neurites with a length at least twice the long diameter of cell/total number of cells” value under setting [6] amounted to 12.5 ± 0.9%.
Consider `Cc1cc2c(C)nc(N3CCNCC3)nc2o1.Cl` [Compound 906, 4,6-Dimethyl-2-piperazinofuro[2,3-d]pyrimidine hydrochloride], for which the “Cells having neurites with a length at least twice the long diameter of cell/total number of cells” value reads like this: (Table 3 Run No. 6, 0.1 mM, control 4.4 ± 0.9) 7.4 ± 1.0%; (Table 3 Run No. 6, 0.3 mM, control 4.4 ± 0.9) 7.0 ± 0.6%.
Regarding `CN1C(=O)Cc2cnc(N3CCNCC3)nc21` [Compound 416], the “Cells having neurites with a length at least twice the long diameter of cell/total number of cells” value by setting is: (Table 3 Run No. 8, 0.1 mM, control 3.7 ± 0.4) 11.7 ± 3.3%; under setting [7], 40.4 ± 9.2%; under setting [8], 48.7 ± 5.7%.
Regarding `COC(=O)c1cnc(N2CCNCC2)nc1NC(C)C` [Compound 116], the “Cells having neurites with a length at least twice the long diameter of cell/total number of cells” value reads like this: (Table 3 Run No. 10, 0.01 mM, control 1.7 ± 0.7) 7.5 ± 2.2%; (Table 3 Run No. 10, 0.03 mM, control 1.7 ± 0.7) 11.6 ± 2.0%; under setting [3], 10.6 ± 4.5%.
For the molecule `Cn1ccc2nc(N3CCNCC3)ncc2c1=O` [Compound 707], the “Cells having neurites with a length at least twice the long diameter of cell/total number of cells” value runs as follows: (Table 3 Run No. 7, 0.3 mM, control 2.5 ± 0.7) 7.3 ± 1.0%; (Table 3 Run No. 7, 0.5 mM, control 2.5 ± 0.7) 10.5 ± 1.5%; (Table 3 Run No. 7, 1 mM, control 2.5 ± 0.7) 21.4 ± 1.7%; (Table 3 second Run No. 5, 0.01 mM, control 4.5 ± 0.3) 6.1 ± 0.5%; under setting [13], 36.1 ± 3.7%.
For `CCN(CC)C(=O)c1cnc(N2CCNCC2)nc1NC(C)C` [Compound 108], the “Cells having neurites with a length at least twice the long diameter of cell/total number of cells” value is recorded as 4.6 ± 1.2% under setting [10] and 6.9 ± 1.6% under setting [11].
Consider `CCOC(=O)N1CCN(c2ncc3c(n2)N(C)C(=O)C3)CC1` [Compound 442], for which the “Cells having neurites with a length at least twice the long diameter of cell/total number of cells” value reads like this: (Table 3 Run No. 2, 0.1 mM, control 1.9 ± 0.9) 5.7 ± 0.5%; under setting [10], 7.1 ± 2.6%; under setting [11], 9.1 ± 0.8%; (Table 3 Run No. 9, 3 mM, control 2.0 ± 1.0) 13.8 ± 1.2%.
Consider `Cc1nc(N2CCNCC2)nc2c1CC(=O)N2C.Cl` [Compound 466, 5,6-Dihydro-4,7-dimethyl-6-oxo-2-piperazino(7H)pyrrolo[2,3-d]pyrimidine hydrochloride], for which the “Cells having neurites with a length at least twice the long diameter of cell/total number of cells” value (Table 3 second Run No. 5, 0.1 mM, control 4.5 ± 0.3) is on record as 5.4 ± 0.3% and the “Cells having neurites with a length at least twice the long diameter of cell/total number of cells” value under setting [13] was 13.1 ± 1.4%.
For the molecule `CN1C(=O)Cc2cnc(N3CCNCC3)nc21.O=P(O)(O)O` [Compound 418, 5,6-Dihydro-7-methyl-6-oxo-2-piperazino(7H)pyrrolo[2,3-d]pyrimidine phosphate], the “Cells having neurites with a length at least twice the long diameter of cell/total number of cells” value is, setting by setting: under setting [7], 16.6 ± 1.1%; under setting [8], 29.6 ± 3.3%; under setting [9], 47.4 ± 1.6%.
In the case of `COCCN1C(=O)Cc2cnc(N3CCNCC3)nc21.O=C(O)/C=C\C(=O)O` [Compound 430, 5,6-Dihydro-7-(2-methoxyethyl)-6-oxo-2-piperazino(7H)pyrrolo[2,3-d]pyrimidine maleate], the “Cells having neurites with a length at least twice the long diameter of cell/total number of cells” value is, setting by setting: under setting [12], 7.2 ± 1.9%; under setting [5], 11.7 ± 1.8%; under setting [6], 13.4 ± 0.4%; (Table 3 second Run No. 5, 0.3 mM, control 4.5 ± 0.3) 7.6 ± 0.8%; under setting [13], 9.0 ± 0.8%.
For `CN1C(=O)Cc2cnc(N3CCNCC3)nc21` [Compound 420], the “Cells having neurites with a length at least twice the long diameter of cell/total number of cells” value runs as follows: under setting [7], 16.5 ± 2.1%; under setting [8], 30.6 ± 5.0%; under setting [9], 47.5 ± 0.6%.
For the molecule `CCN(CC)C(=O)c1cnc(N2CCNCC2)nc1OC` [Compound 112], the “Cells having neurites with a length at least twice the long diameter of cell/total number of cells” value under setting [11] amounted to 3.5 ± 0.5%.
With `Cc1nc(N2CCNCC2)nc2c1CC(=O)N2C` [Compound 464, 5,6-Dihydro-4,7-dimethyl-6-oxo-2-piperazino(7H)pyrrolo[2,3-d]pyrimidine], the “Cells having neurites with a length at least twice the long diameter of cell/total number of cells” value is, setting by setting: under setting [12], 7.1 ± 1.6%; under setting [4], 10.1 ± 1.9%; under setting [6], 13.1 ± 1.1%.
